Test results reported in ChEMBL document CHEMBL4483862, “Open-source discovery of chemical leads for next-generation chemoprotective antimalarials” (2018).

Test system: Plasmodium berghei
Experiment: Luciferase/luciferin-expressing antifolate-resistant parasites were used to infect a culture of HepG2 cells that were pre-incubated with compounds. Infected hepatocytes emit light due to the luciferase reaction. Assay results are presented as the percent inhibition of light emission compared to control. […]
Assay type: functional
Settings: sporozoite; for IC90: read-out: LUCIFERASE INFECTION ASSAY - IC90

SMILES: Cc1ccc(NN2C(=O)C=C(c3ccccc3)C2=O)cc1
- IC50 (HEPG2TOX_HILL_SLOPE 1.4, HEPG2TOX_R_SQUARED 0.882, PBLUC_HILL_SLOPE 17, PBLUC_R_SQUARED 0.623, read-out: LUCIFERASE INFECTION ASSAY - IC50): 11.2 µM
- IC90: > 11.9 µM

SMILES: Cc1ccc2c(c1)CCCN2C(=O)CCc1nc(O)c2ccccc2n1
- IC50 (HEPG2TOX_HILL_SLOPE 1.38, HEPG2TOX_R_SQUARED 0.978, PBLUC_HILL_SLOPE 0.881, PBLUC_R_SQUARED 0.443, read-out: LUCIFERASE INFECTION ASSAY - IC50): 3.89 µM
- IC90: > 10 µM

SMILES: N#C/C(=N\Nc1ccc(OC(F)(F)F)cc1)C(=O)c1ccsc1
- IC50 (HEPG2TOX_HILL_SLOPE 1.43, HEPG2TOX_R_SQUARED 0.957, PBLUC_HILL_SLOPE 2.41, PBLUC_R_SQUARED 0.455, read-out: LUCIFERASE INFECTION ASSAY - IC50): 2.58 µM
- IC90: 6.42 µM

SMILES: Cc1cc(Nc2cccc(C(F)(F)F)c2)n2ncc(C#N)c2n1
- IC50 (HEPG2TOX_HILL_SLOPE 1.43, HEPG2TOX_R_SQUARED 0.906, PBLUC_HILL_SLOPE 4.64, PBLUC_R_SQUARED 0.533, read-out: LUCIFERASE INFECTION ASSAY - IC50): 2.09 µM
- IC90: 3.35 µM

SMILES: c1nc(NCc2ccc(CN3CCOCC3)cc2)c2sccc2n1
- IC50 (HEPG2TOX_HILL_SLOPE 1.44, HEPG2TOX_R_SQUARED 0.736, PBLUC_HILL_SLOPE 1.22, PBLUC_R_SQUARED 0.605, read-out: LUCIFERASE INFECTION ASSAY - IC50): 2.88 µM
- IC90: > 10 µM

SMILES: COc1ccc(NC(=O)c2ccoc2)cc1S(=O)(=O)Nc1ccc(Br)cc1
- IC50 (HEPG2TOX_HILL_SLOPE 1.42, HEPG2TOX_R_SQUARED 0.956, PBLUC_HILL_SLOPE 2.25, PBLUC_R_SQUARED 0.81, read-out: LUCIFERASE INFECTION ASSAY - IC50): 0.611 µM
- IC90: 1.62 µM

SMILES: O=C(c1cnc(Nc2cccc(Oc3ccccc3)c2)[nH]1)c1ccccc1O
- IC50 (HEPG2TOX_HILL_SLOPE 1.38, HEPG2TOX_R_SQUARED 0.947, PBLUC_HILL_SLOPE 15.8, PBLUC_R_SQUARED 0.824, read-out: LUCIFERASE INFECTION ASSAY - IC50): 0.938 µM
- IC90: 1.08 µM

SMILES: COC(=O)c1c(C)[nH]c(-c2nc(NCc3ccc(C)cc3)sc2C)c1C
- IC50 (HEPG2TOX_HILL_SLOPE 1.4, HEPG2TOX_R_SQUARED 0.957, PBLUC_HILL_SLOPE 3.81, PBLUC_R_SQUARED 0.59, read-out: LUCIFERASE INFECTION ASSAY - IC50): 4.91 µM
- IC90: 8.74 µM

SMILES: Cc1ccc(NCC(=O)NC(=O)Nc2cccc(C)c2C)cc1S(=O)(=O)N1CCCCC1
- IC50 (HEPG2TOX_HILL_SLOPE 1.43, HEPG2TOX_R_SQUARED 0.867, PBLUC_HILL_SLOPE 1.55, PBLUC_R_SQUARED 0.466, read-out: LUCIFERASE INFECTION ASSAY - IC50): 2.55 µM
- IC90: > 10 µM

SMILES: COc1cc(-c2cnc3ccc(Cc4ccccc4)nn23)cc(OC)c1OC
- IC50 (HEPG2TOX_HILL_SLOPE 1.4, HEPG2TOX_R_SQUARED 0.659, PBLUC_HILL_SLOPE 16.5, PBLUC_R_SQUARED 0.342, read-out: LUCIFERASE INFECTION ASSAY - IC50): 9.26 µM
- IC90: > 10 µM

SMILES: CC(C)Cn1c(SCc2cn3cc(Cl)ccc3n2)nc2ccccc2c1=O
- IC50 (HEPG2TOX_HILL_SLOPE 1.44, HEPG2TOX_R_SQUARED 0.631, PBLUC_HILL_SLOPE 96, PBLUC_R_SQUARED 0.548, read-out: LUCIFERASE INFECTION ASSAY - IC50): 7.68 µM
- IC90: 7.86 µM

SMILES: C/C(=N\NC(=O)c1ccc(Cl)cc1)c1ccccc1O
- IC50 (HEPG2TOX_HILL_SLOPE 1.4, HEPG2TOX_R_SQUARED 0.87, PBLUC_HILL_SLOPE 14.3, PBLUC_R_SQUARED 0.668, read-out: LUCIFERASE INFECTION ASSAY - IC50): 3.7 µM
- IC90: 4.32 µM

SMILES: Cc1ccc(Nc2nc(C[N+]3(Cc4csc(Nc5ccc(C)cc5)n4)CCN(Cc4ccc(C#N)cc4)CC3)cs2)cc1
- IC50 (HEPG2TOX_HILL_SLOPE 1.4, HEPG2TOX_R_SQUARED 0.751, PBLUC_HILL_SLOPE 1.26, PBLUC_R_SQUARED 0.51, read-out: LUCIFERASE INFECTION ASSAY - IC50): 1.97 µM
- IC90: > 10 µM

SMILES: Cc1ccccc1-n1c(SCC(=O)Nc2sc3c(c2C(N)=O)CCC3)nc2ccccc2c1=O
- IC50 (HEPG2TOX_HILL_SLOPE 1.4, HEPG2TOX_R_SQUARED 0.675, read-out: LUCIFERASE INFECTION ASSAY - IC50): > 10 µM
- IC90: > 10 µM

SMILES: CCOc1cccc(-c2cn3c(-c4cccc(O)c4)cnc3cn2)c1
- IC50 (HEPG2TOX_HILL_SLOPE 1.42, HEPG2TOX_R_SQUARED 0.867, PBLUC_HILL_SLOPE 1.9, PBLUC_R_SQUARED 0.651, read-out: LUCIFERASE INFECTION ASSAY - IC50): 3.05 µM
- IC90: 9.74 µM

SMILES: CCc1cc(=O)n2nc(-c3ccccc3)c(-c3ccccc3)c2[nH]1
- IC50 (HEPG2TOX_HILL_SLOPE 1.41, HEPG2TOX_R_SQUARED 0.964, PBLUC_HILL_SLOPE 4.43, PBLUC_R_SQUARED 0.223, read-out: LUCIFERASE INFECTION ASSAY - IC50): 7.37 µM
- IC90: > 10.5 µM

SMILES: O=C(Nc1ccc(I)cc1)C1CCN(C(=O)c2ccncc2)CC1
- IC50 (HEPG2TOX_HILL_SLOPE 1.42, HEPG2TOX_R_SQUARED 0.857, PBLUC_HILL_SLOPE 1.13, PBLUC_R_SQUARED 0.975, read-out: LUCIFERASE INFECTION ASSAY - IC50): 0.403 µM
- IC90: 2.8 µM

SMILES: CC/C(=N\NC(=O)COc1cccc(Br)c1)c1cc(F)ccc1O
- IC50 (HEPG2TOX_HILL_SLOPE 1.42, HEPG2TOX_R_SQUARED 0.962, PBLUC_HILL_SLOPE 3.55, PBLUC_R_SQUARED 0.0785, read-out: LUCIFERASE INFECTION ASSAY - IC50): 5.12 µM
- IC90: 9.51 µM

SMILES: Cc1ccc(N/N=C/c2c3ccccc3cc3ccccc23)cc1Cl
- IC50 (HEPG2TOX_HILL_SLOPE 1.41, HEPG2TOX_R_SQUARED 0.742, PBLUC_HILL_SLOPE 1.25, PBLUC_R_SQUARED 0.657, read-out: LUCIFERASE INFECTION ASSAY - IC50): 1.01 µM
- IC90: 5.87 µM

SMILES: COc1cccc(-c2cn3c(-c4ccc5c(ccn5C)c4)cnc3cn2)c1F
- IC50 (HEPG2TOX_HILL_SLOPE 1.41, HEPG2TOX_R_SQUARED 0.854, PBLUC_HILL_SLOPE 2.39, PBLUC_R_SQUARED 0.955, read-out: LUCIFERASE INFECTION ASSAY - IC50): 0.0579 µM
- IC90: 0.145 µM

SMILES: Cc1ccc(Nc2cc(C(C)C)c(OS(=O)(=O)c3ccc(C)cc3)c(C(C)C)c2)cc1
- IC50 (HEPG2TOX_HILL_SLOPE 1.43, HEPG2TOX_R_SQUARED 0.724, PBLUC_HILL_SLOPE 19.9, PBLUC_R_SQUARED 0.613, read-out: LUCIFERASE INFECTION ASSAY - IC50): 8.6 µM
- IC90: 9.61 µM

SMILES: Cc1cc(-c2cnc(N)c(-c3cccc(C(F)(F)F)c3)c2)cc(C)c1O
- IC50 (HEPG2TOX_HILL_SLOPE 1.44, HEPG2TOX_R_SQUARED 0.945, PBLUC_HILL_SLOPE 1.93, PBLUC_R_SQUARED 0.583, read-out: LUCIFERASE INFECTION ASSAY - IC50): 1.55 µM
- IC90: 4.83 µM

SMILES: Cc1nnsc1-c1onc(C)c1C(=O)NC(=O)Nc1cc(Cl)cc(Cl)c1
- IC50 (HEPG2TOX_HILL_SLOPE 1.43, HEPG2TOX_R_SQUARED 0.987, PBLUC_HILL_SLOPE 8.7, PBLUC_R_SQUARED 0.518, read-out: LUCIFERASE INFECTION ASSAY - IC50): 2.34 µM
- IC90: 3.02 µM

SMILES: CCc1ccc(C(=O)Nc2cccc(NC(=O)c3ccccc3C)c2)cc1
- IC50 (HEPG2TOX_HILL_SLOPE 1.42, HEPG2TOX_R_SQUARED 0.919, PBLUC_HILL_SLOPE 4.98, PBLUC_R_SQUARED 0.845, read-out: LUCIFERASE INFECTION ASSAY - IC50): 0.735 µM
- IC90: 1.14 µM

SMILES: Cc1ccc(OCCNC(=O)c2[nH]c3c(c2C)C(=O)CCC3)c(C)c1
- IC50 (HEPG2TOX_HILL_SLOPE 1.42, HEPG2TOX_R_SQUARED 0.935, PBLUC_HILL_SLOPE 2.91, PBLUC_R_SQUARED 0.758, read-out: LUCIFERASE INFECTION ASSAY - IC50): 1.29 µM
- IC90: 2.74 µM

SMILES: Cc1cc(NC(=O)c2ccc(CN3CCN(C/C=C/c4ccccc4)CC3)cc2)ccc1Cl
- IC50 (HEPG2TOX_HILL_SLOPE 1.44, HEPG2TOX_R_SQUARED 0.929, PBLUC_HILL_SLOPE 2.64, PBLUC_R_SQUARED 0.29, read-out: LUCIFERASE INFECTION ASSAY - IC50): 4.99 µM
- IC90: > 10 µM

SMILES: Oc1c(C(Nc2nccs2)c2cccnc2)ccc2cccnc12 (configuration not stated)
- IC50 (HEPG2TOX_HILL_SLOPE 1.4, HEPG2TOX_R_SQUARED 0.615, PBLUC_HILL_SLOPE 3.49, PBLUC_R_SQUARED 0.793, read-out: LUCIFERASE INFECTION ASSAY - IC50): 2 µM
- IC90: 3.75 µM

SMILES: O=C(Nc1ccc(SC(F)(F)F)cc1)Nc1ccc(SC(F)(F)F)cc1
- IC50 (HEPG2TOX_HILL_SLOPE 1.44, HEPG2TOX_R_SQUARED 0.886, PBLUC_HILL_SLOPE 1.62, PBLUC_R_SQUARED 0.668, read-out: LUCIFERASE INFECTION ASSAY - IC50): 0.223 µM
- IC90: 0.867 µM

SMILES: CCc1cccc2c(C(=O)COC(=O)/C(C#N)=C/c3ccc(OC)cc3)c[nH]c12
- IC50 (HEPG2TOX_HILL_SLOPE 1.4, HEPG2TOX_R_SQUARED 0.562, read-out: LUCIFERASE INFECTION ASSAY - IC50): > 10 µM
- IC90: > 10 µM

SMILES: COc1cc(C(=O)N/N=C2/C(=O)c3cccc4cccc2c34)cc(OC)c1OC
- IC50 (HEPG2TOX_HILL_SLOPE 1.4, HEPG2TOX_R_SQUARED 0.956, PBLUC_HILL_SLOPE 15.6, PBLUC_R_SQUARED 0.526, read-out: LUCIFERASE INFECTION ASSAY - IC50): 3.19 µM
- IC90: 3.67 µM

SMILES: NC(CCc1ccccc1)c1csc(Nc2cc(NCCCO)ncn2)n1 (configuration not stated)
- IC50 (HEPG2TOX_HILL_SLOPE 1.38, HEPG2TOX_R_SQUARED 0.93, PBLUC_HILL_SLOPE 3.41, PBLUC_R_SQUARED 0.149, read-out: LUCIFERASE INFECTION ASSAY - IC50): 6.73 µM
- IC90: > 8.58 µM
